This passage reports IC50 results from patent US20070027150A1 (priority 2005, published 2007).

For this experiment, the target named is His-tagged N-terminal ATP binding domain (amino acid residues 9-236) of HSP90α (Homo sapiens, UniProt P07900). Kind of experiment: HSP90 inhibitor binding potency: TRF competition binding assay. The following applies: Table II; read-out: Hsp90 IC50 Range. The gist of the method: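 Competition against biotinylated radicicol for binding to the His-tagged 9-236 ATP domain of HSP90α: 2 h, room temperature, HEPES/MgCl2/KCl/BSA buffer. Streptavidin capture, then europium-labeled anti-His antibody and enhancement solution; europium counts give IC50.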
The IC50 is the concentration that gives 50% inhibition. For the compound `COc1ccc(F)c(-c2cc(F)ccc2[C@@H]2CC(=O)c3c(C)nc(N)nc3C2)n1` [Compound 313, (S)-2-amino-7-[4-fluoro-2-(3-fluoro-6-methoxy-pyridin-2-yl)-phenyl]-4-methyl-7,8-dihydro-6H-quinazolin-5-one], the IC50 is less than 1000 nM.

Regarding `COc1ccc(F)c(-c2cc(F)ccc2[C@H]2CC(=O)c3c(C)nc(N)nc3C2)n1` [Compound 314, (R)-2-amino-7-[4-fluoro-2-(3-fluoro-6-methoxy-pyridin-2-yl)-phenyl]-4-methyl-7,8-dihydro-6H-quinazolin-5-one], the IC50 lay in the range of 1000 to 10000 nM.

Regarding `CCc1nc(N)nc2c1C(=O)CC(c1ccc(F)cc1Br)C2` (stereo not shown) [Compound 315, 2-amino-7-(2-bromo-4-fluoro-phenyl)-4-ethyl-7,8-dihydro-6H-quinazolin-5-one], the IC50 is more than 10000 nM.

Regarding `CCc1nc(N)nc2c1C(=O)CC(c1ccc(F)cc1-c1cccc(OC)n1)C2` (stereo not shown) [Compound 316, 2-amino-4-ethyl-7-[4-fluoro-2-(6-methoxy-pyridin-2-yl)-phenyl]-7,8-dihydro-6H-quinazolin-5-one], the IC50 was less than 1000 nM.

As to `CCc1nc(N)nc2c1C(=O)CC(c1ccc(F)cc1-c1cccnc1OC)C2` (stereo not shown) [Compound 317, 2-amino-4-ethyl-7-[4-fluoro-2-(2-methoxy-pyridin-3-yl)-phenyl]-7,8-dihydro-6H-quinazolin-5-one], the IC50 lay within 1000 to 10000 nM.

As to `CCc1nc(N)nc2c1C(=O)CC(c1ccc(F)cc1-c1cccnc1)C2` (stereo not shown) [Compound 318, 2-amino-4-ethyl-7-(4-fluoro-2-pyridin-3-yl-phenyl)-7,8-dihydro-6H-quinazolin-5-one], the IC50 was less than 1000 nM. The same measure for `CCc1nc(N)nc2c1C(=O)CC(c1ccc(F)cc1-c1cccnc1F)C2` (stereo not shown) [Compound 319, 2-amino-4-ethyl-7-[4-fluoro-2-(2-fluoro-pyridin-3-yl)-phenyl]-7,8-dihydro-6H-quinazolin-5-one]: 1000 to 10000 nM; for `CCc1nc(N)nc2c1C(=O)CC(c1ccc(F)cc1-c1cccc(OC)c1F)C2` (stereo not shown) [Compound 320, 2-amino-7-(5,2′-difluoro-3′-methoxy-biphenyl-2-yl)-4-ethyl-7,8-dihydro-6H-quinazolin-5-one]: more than 10000 nM; for `CCc1nc(N)nc2c1C(=O)CC(c1ccc(F)cc1-c1ccccc1OC)C2` (stereo not shown) [Compound 321, 2-amino-4-ethyl-7-(5-fluoro-2′-methoxy-biphenyl-2-yl)-7,8-dihydro-6H-quinazolin-5-one]: 1000 to 10000 nM. Turning to `COc1ncc(-c2cc(F)ccc2C2CC(=O)c3c(C)nc(N)nc3C2)nc1OC` (stereo not shown) [Compound 322, 2-amino-7-[2-(5,6-dimethoxy-pyrazin-2-yl)-4-fluoro-phenyl]-4-methyl-7,8-dihydro-6H-quinazolin-5-one], the 50% inhibitory concentration (IC50) was less than 1000 nM. The same measure for `COc1ncc(-c2cc(F)ccc2[C@@H]2CC(=O)c3c(C)nc(N)nc3C2)nc1OC` [Compound 323, (S)-2-amino-7-[2-(5,6-dimethoxy-pyrazin-2-yl)-4-fluoro-phenyl]-4-methyl-7,8-dihydro-6H-quinazolin-5-one]: less than 1000 nM. The same measure for `CCc1nc(N)nc2c1C(=O)CC(c1ccc(F)cc1-c1cnc(OC)c(OC)n1)C2` (stereo not shown) [Compound 324, 2-amino-7-[2-(5,6-dimethoxy-pyrazin-2-yl)-4-fluoro-phenyl]-4-ethyl-7,8-dihydro-6H-quinazolin-5-one]: less than 1000 nM.

Consider `CCc1nc(N)nc2c1C(=O)CC(c1ccc(F)cc1-c1cncc(OC)n1)C2` (stereo not shown) [Compound 325, 2-amino-4-ethyl-7-[4-fluoro-2-(6-methoxy-pyrazin-2-yl)-phenyl]-7,8-dihydro-6H-quinazolin-5-one], for which the IC50 is less than 1000 nM. To `CC(=O)c1ccc(-c2cc(F)ccc2[C@@H]2CC(=O)c3c(C)nc(N)nc3C2)s1` [Compound 326, (S)-7-[2-(5-Acetyl-thiophen-2-yl)-4-fluoro-phenyl]-2-amino-4-methyl-7,8-dihydro-6H-quinazolin-5-one] belongs 1000 to 10000 nM. To `COc1cc(-n2ccnc2C2CC(=O)c3c(C)nc(N)nc3C2)c(OC)cc1Cl` (stereo not shown) [Compound 327, 2-amino-7-[1-(4-chloro-2,5-dimethoxy-phenyl)-1H-imidazol-2-yl]-4-methyl-7,8-dihydro-6H-quinazolin-5-one] belongs less than 1000 nM; to `Cc1nc(N)nc2c1C(=O)CC(c1nccn1-c1ccc(Cl)cc1F)C2` (stereo not shown) [Compound 328, 2-amino-7-[1-(4-chloro-2-fluoro-phenyl)-1H-imidazol-2-yl]-4-methyl-7,8-dihydro-6H-quinazolin-5-one], 1000 to 10000 nM. As for `Cc1ccc(-n2ccnc2C2CC(=O)c3c(C)nc(N)nc3C2)c(F)c1` (stereo not shown) [Compound 329, 2-amino-7-[1-(2-fluoro-4-methyl-phenyl)-1H-imidazol-2-yl]-4-methyl-7,8-dihydro-6H-quinazolin-5-one], the IC50 lay within 1000 to 10000 nM.

Turning to `COc1cc(Cl)c(C)cc1-n1ccnc1C1CC(=O)c2c(C)nc(N)nc2C1` (stereo not shown) [Compound 330, 2-amino-7-[1-(4-chloro-2-methoxy-5-methyl-phenyl)-1H-imidazol-2-yl]-4-methyl-7,8-dihydro-6H-quinazolin-5-one], the IC50 lay in the range of 1000 to 10000 nM. The same measure for `Cc1nc(N)nc2c1C(=O)C[C@@H](c1ccc(F)cc1-c1cnc3ncn(C)c3n1)C2` [Compound 331, (S)-2-amino-7-[4-fluoro-2-(3-methyl-3H-imidazo[4,5-b]pyrazin-5-yl)-phenyl]-4-methyl-7,8-dihydro-6H-quinazolin-5-one]: more than 10000 nM. With `COc1nc(-c2cc(F)ccc2[C@@H]2CC(=O)c3c(C)nc(N)nc3C2)cnc1C` [Compound 332, (S)-2-amino-7-[4-fluoro-2-(6-methoxy-5-methyl-pyrazin-2-yl)-phenyl]-4-methyl-7,8-dihydro-6H-quinazolin-5-one], the IC50 was less than 1000 nM. As to `CCc1cc(-n2ccnc2C2CC(=O)c3c(C)nc(N)nc3C2)ccc1C` (stereo not shown) [Compound 333, 2-amino-7-[1-(3-ethyl-4-methyl-phenyl)-1H-imidazol-2-yl]-4-methyl-7,8-dihydro-6H-quinazolin-5-one], the IC50 is 1000 to 10000 nM. To `COc1nc(-c2cc(F)ccc2C2CC(=O)c3c(C)nc(N)nc3C2)cnc1Cl` (stereo not shown) [Compound 334, 2-amino-7-[2-(5-chloro-6-methoxy-pyrazin-2-yl)-4-fluoro-phenyl]-4-methyl-7,8-dihydro-6H-quinazolin-5-one] belongs less than 1000 nM; to `CCc1nc(N)nc2c1C(=O)CC(c1ccc(F)cc1-c1cnc(N)c(OC)n1)C2` (stereo not shown) [Compound 335, 2-amino-7-[2-(5-amino-6-methoxy-pyrazin-2-yl)-4-fluoro-phenyl]-4-ethyl-7,8-dihydro-6H-quinazolin-5-one], less than 1000 nM. As to `CCOc1cncc(-c2cc(F)ccc2[C@@H]2CC(=O)c3c(C)nc(N)nc3C2)n1` [Compound 336, (S)-2-amino-7-[2-(6-ethoxy-pyrazin-2-yl)-4-fluoro-phenyl]-4-methyl-7,8-dihydro-6H-quinazolin-5-one], the IC50 is less than 1000 nM.

For the compound `COc1nc(-c2cc(F)ccc2[C@@H]2CC(=O)c3c(C)nc(N)nc3C2)c(C)nc1N` [Compound 337, (S)-2-amino-7-[2-(5-amino-6-methoxy-3-methyl-pyrazin-2-yl)-4-fluoro-phenyl]-4-methyl-7,8-dihydro-6H-quinazolin-5-one], the IC50 was less than 1000 nM.
